System: CD1 female mouse brain lipidome
Assay: Brain-region lipid levels (HPLC/MS/MS lipidomics) 2 h after single i.p. 3 mg/kg CP 55,940 vs vehicle
Format: in vivo
Design: N-arachidonoyl phenylalanine level, Mean / N-stearoyl tryptophan level, Mean / N-stearoyl proline level, Mean / N-stearoyl leucine level, Mean / N-stearoyl phenylalanine level, Mean / N-stearoyl serine level, Mean / N-stearoyl methionine level, Mean: unit: moles per gram
Description: The Bloomington Institutional Animal Care and Use Committee of Indiana University reviewed and approved the animal procedures. Female mice from the CD1 strain were utilized to match our study examining THC’s effects on the brain lipidome ([Leishman et al., 2018]). Mice were given a single i.p. injection of either 3 mg/kg CP or 1:1:18 cremophor:ethanol:saline vehicle (please refer to the section “3 mg/kg CP Is Relevant for Synthetic Cannabinoid Abuse and Has Stronger Effects on the Female Mouse Brain Lipidome During Adolescence” for a justification of dose and use of female mice). Three different age groups were given injections: PND 35 and PND 50 adolescents, and adult mice (PND 113). At least eight mice in each age group received CP and at least eight received vehicle. Matching the THC study time course ([Leishman et al., 2018]), mice were sacrificed via rapid decapitation 2 h after injection. Brains were immediately removed and flash-frozen in liquid nitrogen, and then stored at -80°C until dissections were performed. Brains were dissected on an ice-cold dissection plate into the following regions: STR, HIPP, CER, THAL, CTX, HYP, MID, and STEM. These abbreviations for these brain areas will be used exclusively when discussing the results generated by these specific dissections. Each dissected area was immediately placed in liquid nitrogen and then stored at -80°C until used for lipid extraction.
Tissue extracts were performed as previously described ([Bradshaw et al., 2006]; [Stuart et al., 2013]; [Raboune et al., 2014]; [Leishman et al., 2016a],[b], [2017], [2018]). First, samples were shock frozen in liquid nitrogen, weighed, and transferred to a centrifuge tube. The mass of the largest sample was multiplied by 50 to determine how many milliliters of HPLC-grade methanol (Fisher, Fair Lawn, NJ, United States) to add. Then, samples were spiked with 500 pmol deuterium-labeled NAGly (d8NAGly; Cayman Chemical, Ann Arbor, MI, United States). Samples were placed on ice in darkness for 2 h then individually homogenized and centrifuged at 19,000 × g for 20 min at 20°C. Supernatants were diluted with HPLC water (purified in house) to make a solution of 75% water, 25% supernatant. Lipids were partially purified on C18 solid phase extraction columns (Agilent, Palo Alto, CA, United States). A series of four elutions with 1.5 mL of 60%, 75%, 85%, and 100% methanol were collected ([Stuart et al., 2013]; [Leishman et al., 2016a],[b], [2018]).
As previously described ([Bradshaw et al., 2006]; [Tan et al., 2006]; [Smoum et al., 2010]; [Stuart et al., 2013]; [Tortoriello et al., 2013]; [Raboune et al., 2014]; [Leishman et al., 2016a],[b], [2017], [2018]), samples were analyzed using an Applied Biosystems API 3000 triple quadrupole mass spectrometer with electrospray ionization (Foster City, CA, United States). Using an Agilent XDB-C18 reversed phase analytical column and optimized mobile phase gradients, 20 μL from each elution were chromatographed. Two Shimadzu 10ADvp pumps (Columbia, MD, United States) provided the pressure for gradient elution. Mobile phase A: 20% methanol, 80% water (v/v) and 1 mM ammonium acetate (Sigma, St. Louis, MO, United States). Mobile phase B: 100% methanol, 1 mM ammonium acetate. Every method run began with 0% mobile phase B, reached 100% mobile phase B flowing at 0.2 mL/min, and gradually returned to 0% mobile phase B.
This screening library will be referred to as the lipidome when discussing data from this study. HPLC/MS/MS data were analyzed using Analyst software (Applied Biosystems) ([Bradshaw et al., 2006]; [Tan et al., 2006]; [Stuart et al., 2013]; [Tortoriello et al., 2013]; [Raboune et al., 2014]; [Leishman et al., 2016a],[b], [2017], [2018]). Chromatograms (Supplementary Figure 3) were generated by determining the retention time of analytes from the analytical column with a [M-1] or [M+1] parent peak and a fragmentation peak corresponding to the programmed values. […]

[1] = brainstem, PND 50, 3 mg/kg CP 55,940, one-way ANOVA p .062
[2] = brainstem, PND35 WT female mice, 3 mg/kg
[3] = cerebellum, PND 50, 3 mg/kg CP 55,940
[4] = cerebellum, PND 50 female mice, 3 mg/kg CP 55,940

For `CCCCCCC(C)(C)c1ccc([C@@H]2C[C@H](O)CC[C@H]2CCCO)c(O)c1` [CP 55,940], the “2-oleoyl glycerol, Magnitude (x Veh level)” value (brainstem, PND 50, 3 mg/kg CP 55,940, one-way ANOVA p .046) was 0.86 x Veh level, the “2-palmitoyl glycerol, Direction (relative to Veh)” value [1] was “↓” and the “2-palmitoyl glycerol, Magnitude (x Veh level)” value [1] was 0.71 x Veh level. For the same compound, the “N-arachidonoyl GABA level, Mean” value [2] was 8.01E-12, the “N-arachidonoyl alanine level, Mean” value [2] was 6.76E-12 and the “N-arachidonoyl ethanolamine level, Mean” value [2] was 2.09E-11. For the same compound, the “N-arachidonoyl glycine level, Mean” value [2] was 4.63E-11, the “N-arachidonoyl methionine level, Mean” value [2] was 8.72E-13 and the “N-arachidonoyl phenylalanine level, Mean” value [2] was 9.69E-13. The “N-docosahexaenoyl GABA level, Mean” value [2] was 2.13E-12, the “N-docosahexaenoyl alanine level, Mean” value [2] was 4.95E-12 and the “N-docosahexaenoyl ethanolamine level, Mean” value [2] was 4.42E-11. For the same compound, the “N-docosahexaenoyl glycine level, Mean” value [2] was 2.18E-11, the “N-docosahexaenoyl leucine level, Mean” value [2] was 5.85E-13 and the “N-docosahexaenoyl phenylalanine level, Mean” value [2] was 8.51E-13. The “N-linoleoyl GABA level, Mean” value [2] was 8E-13, the “N-linoleoyl alanine level, Mean” value [2] was 1.32E-12 and the “N-linoleoyl ethanolamine level, Mean” value [2] was 3.37E-11. For the same compound, the “N-linoleoyl glycine level, Mean” value [2] was 5.99E-12, the “N-linoleoyl leucine level, Mean” value [2] was 3.47E-13 and the “N-oleoyl GABA level, Mean” value [2] was 4.65E-12. The “N-oleoyl alanine level, Mean” value [2] was 7.64E-12, the “N-oleoyl ethanolamine level, Mean” value [2] was 2.04E-10 and the “N-oleoyl glycine level, Mean” value [2] was 2.66E-11. The “N-oleoyl leucine level, Mean” value [2] was 1.35E-12, the “N-oleoyl methionine level, Mean” value [2] was 1.16E-12 and the “N-oleoyl phenylalanine level, Mean” value [2] was 1.05E-12. For the same compound, the “N-palmitoyl GABA level, Mean” value [2] was 7.63E-12, the “N-palmitoyl alanine level, Mean” value [2] was 8.91E-12 and the “N-palmitoyl ethanolamine level, Mean” value [2] was 1.31E-10. For the same compound, the “N-palmitoyl glycine level, Mean” value [2] was 4.17E-11, the “N-palmitoyl leucine level, Mean” value [2] was 2.63E-12 and the “N-palmitoyl methionine level, Mean” value [2] was 1.43E-12. For the same compound, the “N-palmitoyl phenylalanine level, Mean” value [2] was 2.02E-12, the “N-stearoyl GABA level, Mean” value [2] was 6.98E-12 and the “N-stearoyl alanine level, Mean” value [2] was 1.31E-11. The “N-stearoyl ethanolamine level, Mean” value [2] was 3.25E-11, the “N-stearoyl glycine level, Mean” value [2] was 2.18E-11 and the “N-stearoyl leucine level, Mean” value [2] was 8.28E-13. For the same compound, the “N-stearoyl methionine level, Mean” value [2] was 1.7E-12, the “N-stearoyl phenylalanine level, Mean” value [2] was 1.48E-12 and the “2-linoleoyl glycerol: Direction (relative to Veh)” value [3] was “↓”. For the same compound, the “2-linoleoyl glycerol: Magnitude (x Veh level)” value [3] was 0.65 x Veh level, the “2-oleoyl glycerol: Direction (relative to Veh)” value [3] was “↓” and the “2-oleoyl glycerol: Magnitude (x Veh level)” value [3] was 0.77 x Veh level. For the same compound, the “2-palmitoyl glycerol: Direction (relative to Veh)” value [3] was “↓”, the “2-palmitoyl glycerol: Magnitude (x Veh level)” value [3] was 0.69 x Veh level and the “6-ketoPGF1α: Direction (relative to Veh)” value [3] was “↑”. For the same compound, the “6-ketoPGF1α: Magnitude (x Veh level)” value [3] was 1.33 x Veh level, the “Arachidonic acid: Direction (relative to Veh)” value [3] was “↓” and the “Arachidonic acid: Magnitude (x Veh level)” value [3] was 0.74 x Veh level. For the same compound, the “Linoleic acid: Direction (relative to Veh)” value [3] was “↓”, the “Linoleic acid: Magnitude (x Veh level)” value [3] was 0.73 x Veh level and the “N-arachidonoyl GABA: Direction (relative to Veh)” value [3] was “↓”. The “N-arachidonoyl GABA: Magnitude (x Veh level)” value [3] was 0.75 x Veh level, the “N-arachidonoyl ethanolamine: Direction (relative to Veh)” value [3] was “↓” and the “N-arachidonoyl ethanolamine: Magnitude (x Veh level)” value [3] was 0.81 x Veh level. For the same compound, the “N-arachidonoyl glycine: Direction (relative to Veh)” value [3] was “↓”, the “N-arachidonoyl glycine: Magnitude (x Veh level)” value [3] was 0.68 x Veh level and the “N-arachidonoyl phenylalanine: Direction (relative to Veh)” value [3] was “↓”. The “N-arachidonoyl phenylalanine: Magnitude (x Veh level)” value [3] was 0.60 x Veh level, the “N-arachidonoyl serine: Direction (relative to Veh)” value [3] was “↓” and the “N-arachidonoyl serine: Magnitude (x Veh level)” value [3] was 0.78 x Veh level. The “N-arachidonoyl taurine: Direction (relative to Veh)” value [3] was “↓”, the “N-arachidonoyl taurine: Magnitude (x Veh level)” value [3] was 0.83 x Veh level and the “N-arachidonoyl tyrosine: Direction (relative to Veh)” value [3] was “↓”. For the same compound, the “N-arachidonoyl tyrosine: Magnitude (x Veh level)” value [3] was 0.73 x Veh level, the “N-docosahexaenoyl phenylalanine: Direction (relative to Veh)” value [3] was “↓” and the “N-docosahexaenoyl phenylalanine: Magnitude (x Veh level)” value [3] was 0.77 x Veh level. For the same compound, the “N-linoleoyl ethanolamine: Direction (relative to Veh)” value [3] was “↓”, the “N-linoleoyl ethanolamine: Magnitude (x Veh level)” value [3] was 0.77 x Veh level and the “N-oleoyl GABA: Direction (relative to Veh)” value [3] was “↓”. For the same compound, the “N-oleoyl GABA: Magnitude (x Veh level)” value [3] was 0.76 x Veh level, the “N-oleoyl ethanolamine: Direction (relative to Veh)” value [3] was “↓” and the “N-oleoyl ethanolamine: Magnitude (x Veh level)” value [3] was 0.85 x Veh level. The “N-oleoyl phenylalanine: Direction (relative to Veh)” value [3] was “↑”, the “N-oleoyl phenylalanine: Magnitude (x Veh level)” value [3] was 1.26 x Veh level and the “N-palmitoyl leucine: Direction (relative to Veh)” value [3] was “↑”. The “N-palmitoyl leucine: Magnitude (x Veh level)” value [3] was 1.63 x Veh level, the “N-palmitoyl valine: Direction (relative to Veh)” value [3] was “↑” and the “N-palmitoyl valine: Magnitude (x Veh level)” value [3] was 1.49 x Veh level. The “Oleic acid: Direction (relative to Veh)” value [3] was “↓”, the “Oleic acid: Magnitude (x Veh level)” value [3] was 0.83 x Veh level and the “PGE2: Direction (relative to Veh)” value [3] was “↓”. The “PGE2: Magnitude (x Veh level)” value [3] was 0.68 x Veh level, the “PGF2α: Direction (relative to Veh)” value [3] was “↓” and the “PGF2α: Magnitude (x Veh level)” value [3] was 0.72 x Veh level. The “2-arachidonoyl glycerol level, Mean” value [4] was 1.99E-10, the “2-linoleoyl glycerol level, Mean” value [4] was 1.45E-10 and the “2-oleoyl glycerol level, Mean” value [4] was 1.49E-09. The “2-palmitoyl glycerol level, Mean” value [4] was 1.57E-09, the “6-ketoPGF1α level, Mean” value [4] was 6.52E-12 and the “11-OH-THC level, Mean” value [4] was “BDL”. For the same compound, the “11-nor-9-carboxyTHC level, Mean” value [4] was “BDL”, the “Arachidonic acid level, Mean” value [4] was 1.8E-10 and the “Cannabidiol level, Mean” value [4] was “BDL”. For the same compound, the “Linoleic acid level, Mean” value [4] was 1.87E-10, the “N- stearoyl valine level, Mean” value [4] was 9.25E-14 and the “N-arachidonoyl GABA level, Mean” value [4] was 3.92E-12. The “N-arachidonoyl dopamine level, Mean” value [4] was “BDL”, the “N-arachidonoyl ethanolamine level, Mean” value [4] was 2.25E-11 and the “N-arachidonoyl glycine level, Mean” value [4] was 1.1E-12.
